# Assay results reported in patent publication US20130216590A1, “TOPICAL ANTIVIRAL FORMULATIONS FOR PREVENTION OF TRANSMISSION OF HSV-2” (priority 2010, published 2013).
# Like-named read-outs stand apart in the source and are kept apart here.
# Experiments:
# [1] = test system: thymidine kinase-deficient HSV-1 clinical isolates; experiment: microbe, parasite or virus in culture; assay type: cell-based; conditions: Human alphaherpesvirus 1, Fibroblast
# [2] = test system: HSV-2 wt clinical isolates; experiment: HSV CPE reduction assay, clinical isolates in HEL fibroblast cell cultures; assay type: cell-based; conditions: Human alphaherpesvirus 2, Fibroblast
# [3] = test system: thymidine kinase-deficient HSV-2 clinical isolates; experiment: microbe, parasite or virus in culture; assay type: cell-based; conditions: Human alphaherpesvirus 2, Fibroblast
# [4] = test system: HSV-2 (G); experiment: Co-infection of TZM-bl cells with HIV-1 and HSV-2: HSV-2-induced cytopathicity; assay type: cell-based; conditions: TZM-bl cultures co-infected with HIV-1(NL4.3) and HSV-2(G)
# Method: The TZM-bl cell line is derived from HeLa cells and expresses high levels of CD4, CCR5 and CXCR4. In addition, this cell line is stably transduced with a LTR-driven firefly luciferase and E. coli-galactosidase gene (15). In a 96-well tray, 10,000 TZM-bl cells were seeded on day 1. […] Next, 100 μl of a virus suspension containing either HIV-1 (NL4.3), HSV-2 (G) or both viruses together was administered. Two to three days post infection, HIV-1 infection was monitored based on the determination of luciferase activity. For this means, 100 μl of culture supernatant was removed and 100 μl of Bright-Glo Luciferase Assay Substrate (Promega, Madison, USA) was added. The luminescence signal was measured using the Safire 2 microtiter plate reader (Tecan, Männedorf, Switzerland). A control condition containing only mock-infected cells was also included to measure the background luminescence levels. Three days post infection, HSV-2-induced cytopathicity was recorded microscopically based on giant cell formation.
# [5] = test system: HSV-2 (G); experiment: Organotypic epithelial raft cultures infected with HSV-2; assay type: cell-based
# Method: (§1) For the preparation of epidermal equivalents, a collagen matrix solution was made with collagen mixed on ice with 10-fold concentrated HAM's F12 media, 10-fold reconstitution buffer and Swiss 3T3 J2 fibroblasts. One milliliter of the collagen matrix solution was poured into the wells of 24-well microtiter plates. After gel equilibration with 1 ml of growth medium overnight at 37° C., 2.5×10^5 PHK cells were seeded on the top of the gels and maintained submerged for 24-48 hours. The collagen rafts were raised and placed onto stainless-steel grids at the interface between air and liquid culture medium. The growth medium was a mixture of ⅓ HAM F12 and ⅔ Dulbecco's modified Eagle's medium, with the same supplements as used for the Keratinocyte-SFM. Epithelial cells were allowed to stratify, the medium being replaced every 2-3 days. For the evaluation of the antiviral effects of the compounds in the raft system, two series of rafts were run in parallel, one for histological examination and the other one for quantification of viral production by a plaque reduction assay. Rafts were infected with 5,000 PFU of HSV-1 (KOS) or […] strains after 10 days post-lifting and then the medium was replaced by medium containing different dilutions of the compounds. The growth medium containing the different concentrations of the compounds was changed two days later and 3 days later (after 15 days of differentiation), one series of rafts was fixed in 10% buffered formalin, embedded in paraffin and stained with hematoxylin and eosin for histological evaluation. Another series of rafts was used to quantify virus production. For that purpose, each raft was frozen in 3 ml phosphate buffer saline (PBS) and thawed to release the virus from the infected epithelium. Supernatants were clarified by centrifugation at 1,800 rpm and titrated by a plaque assay in HEL cell cultures. Virus production in each raft was then calculated. Two rafts were used for each drug concentration to determine the effects of the compounds on virus yield.
# [6] = test system: HSV-1 (KOS); experiment: Organotypic epithelial raft cultures infected with HSV-1; assay type: cell-based
# Method: as §1
# [7] = test system: organotypic raft cultures of keratinocytes; experiment: Toxic effects in organotypic epithelial raft cultures; assay type: cell-based; conditions: highest concentration, 200 μg/ml
# Method: as §1
# [8] = test system: HSV-1 strain F (HSV-1F); experiment: Human ex vivo tonsillar tissue, HSV DNA release by real-time PCR; assay type: cell-based; conditions: Human alphaherpesvirus 1, read-out: EC50, suppression of replication
# [9] = test system: HSV-2 strain G (HSV-2G); experiment: as above; assay type: cell-based
# Method: (§2) For each experimental condition 16 tissue blocks were immersed in 500 μl of a HSV-2 (strain G) suspension for 2 hours at 37° C., washed three times with PBS and then placed on the gelfoam rafts. Tenofovir was added during the infection and replenished at each culture medium change. Herpes simplex viral replication was evaluated by the release of viral DNA into the culture medium as measured by quantitative real-time PCR (17). HIV-1 replication was evaluated by the release of p24 capsid antigen using a bead-based assay (18).
# [10] = test system: HSV-2 strain MS (HSV-2MS); experiment: as above; assay type: cell-based
# [11] = test system: HSV-2G; experiment: Human ex vivo tonsillar tissue coinfected with HSV-2G and HIV-1: HSV-2G DNA release; assay type: cell-based; conditions: 66 μg/ml, coinfected with HIV-1
# Method: as §2
# [12] = test system: HSV-2 (strain G); experiment: Human ex vivo cervico-vaginal tissue, HSV-2 DNA release; assay type: cell-based; conditions: 166 μg/ml
# Method: as §2
# [13] = test system: HSV-1 (Kos strain); experiment: In vivo antiviral activity in HSV-1-infected NMRI athymic nude mice; conditions: 1% topical, 5 days
# Method: Adult NMRI athymic nude mice (weighing ˜20 g) were scarified on the lumbosacral area over a surface of about 1 cm^2. Mice were inoculated with 5×10^3 PFU of HSV-1 (Kos strain) or 5×10^2 of HSV-2 (G strain) in 50 μL per mouse. […] In each experiment, a group of animals treated with a placebo formulation that was the same as the test formulation without drug was included as a negative control. […] The day of virus inoculation was always considered as day 0. All animal procedures were approved by the K.U. Leuven Animal Care Committee. Development of lesions and mortality were recorded over a one month period. Animals were euthanized when more than 30% loss in body weight or development of paralysis occurred. Survival rates were estimated according to the Kaplan-Meir method and were compared using the log-rank test (Mantel-Cox) test (GraphPad Prism).
# [14] = test system: HIV-1; conditions: cited from earlier work
# [15] = Human alphaherpesvirus 2, read-out: EC50, suppression of replication
smiles,measurement,setting,value
"C[C@H](Cn1cnc2c(N)ncnc21)OCP(=O)(O)O [tenofovir, (R)-9-(2-phosphonylmethoxypropyl)adenine]",EC50,[1]; read-out: mean EC50,≥ 166 µg/mL
same,EC50,[1]; read-out: range of EC50,≥ 117 µg/mL
same,EC50,[2]; read-out: mean EC50,≥ 157 µg/mL
same,EC50,[2]; read-out: range of EC50,≥ 125 µg/mL
same,EC50,[3]; read-out: mean EC50,152 µg/mL
same,EC50,[3]; read-out: range of EC50,131 to 179 µg/mL
same,drug concentration that prevented HSV-2 infection,[4],~60 µg/mL
same,protection of the epithelium against HSV-2-induced cytopathicity (morphological analysis),[5]; 2 μg/ml,inactive
same,protection of the epithelium against HSV-2-induced cytopathicity (morphological analysis),[5]; 20 μg/ml and 5 μg/ml,partially protective
same,protection of the epithelium against HSV-2-induced cytopathicity (morphological analysis),[5]; 200 μg/ml and 50 μg/ml,protected the entire epithelium
same,reduction in virus production,"[5]; HSV-2, 20 μg/ml",0.9 log
same,reduction in virus yield,"[5]; HSV-2, 50 μg/ml",1.75 logs
same,log reduction in virus production (PFU) per raft,"[5]; HSV-2, 200 μg/ml",5.4 log
same,reduction of virus replication in the rafts,[5]; lower concentrations (below 20 μg/ml),unable to reduce virus replication
same,protection of the epithelium from HSV-1-induced cytopathic effect,[6]; 20 μg/ml,full destruction
same,protection of the epithelium from HSV-1-induced cytopathic effect,[6]; 50 μg/ml,partial protection
same,reduction in virus yield,"[6]; HSV-1, 50 μg/ml",0.81 logs
same,log reduction in virus production (PFU) per raft,"[6]; HSV-1, 200 μg/ml",2.6 log
same,concentration giving complete protection from virus-induced cytopathic effect,[6]; reference HSV-1 laboratory strain,200 µg/mL
same,toxic effects (increase in number of dead cells or alteration of differentiation),[7],No toxic effects
same,EC50,[8],7 µg/mL
same,reduction of replication compared to infected donor matched-untreated tissue,"[9]; 66 μg/ml, HSV-2G",94±7%
same,release of viral DNA in culture medium,"[9]; 66 μg/ml, day 9 post infection, IQR 3.6-6.1, untreated 7.6",5.2 log10 DNA copies/ml
same,EC50,[9]; [15],14 µg/mL
same,reduction of replication compared to infected donor matched-untreated tissue,"[10]; 66 μg/ml, HSV-2MS",89±2%
same,release of viral DNA in culture medium,"[10]; 66 μg/ml, day 9 post infection, IQR 5.7-6.1, untreated 7.3",5.8 log10 DNA copies/ml
same,EC50,[10]; [15],19 µg/mL
same,HSV-2G DNA release into culture medium,"[11]; IQR 4.3-5.7, untreated 7.3",5 log10 copies/ml
same,suppression of HSV-2G replication,[11]; n=6,96±1%
same,viral production (cumulative viral DNA release),"[12]; 12 days of culture, IQR 4.8-5.7, untreated 6.6",5.5 log10 copies/mL
same,reduction of viral replication (averaged over experiments),[12]; n=5,78±9%
same,morbidity and survival curves compared to the placebo-treated group,[13],significantly delayed
same,reduction of HIV-1 transmission,"[14]; 1% gel, women with high adherence",54%
same,overall decrease in the frequency of the sexual transmission of HIV-1,"[14]; formulated as a 1% gel, approximately 900 African women",39%
